Measurements from patent publication US8685462B1, “Whole, leech saliva product and applications thereof” (priority 2012, dated 2014).

Columns and labels:
[1] = system: induced-diabetic rats; experiment: Antihyperglycemic activity: fasting blood glucose in alloxan-induced diabetic rats; assay type: in vivo, rat
[2] = system: Cryptococcus neoformans ATCC90112; experiment: Kirby-Bauer disc diffusion; conditions: reference antibiotic disc, 100 unit
[3] = system: Candida albicans ATCC10231; experiment: Kirby-Bauer disc diffusion; conditions: reference antibiotic disc, 100 unit

insulin: insulin from bovine pancreas (≧27 units/mg), suspension in distilled water
FBG after two hours of injection ([1]; diabetic rats, s.c., two hours): sharp significant decrease
difference between normal rats and treated diabetic rats ([1]; either dose): No significant difference
FBG after 8 hours of treatment ([1]; lower dose of insulin (10 units/kg b.w)): returned to the diabetic state

C[C@@H]1[C@H](O)[C@@H](C)/C=C/C=C/CC/C=C/C=C/C=C/C=C/C(O[C@H]2O[C@H](C)[C@@H](O)[C@H](N)[C@@H]2O)CC2O[C@](O)(CC(O)C(O)CCC(O)CC(O)CC(O)CC(=O)O[C@H]1C)CC(O)C2C(=O)O (some centres unmarked) [Nystatin, nystatin]
Zone of inhibition [2]: 9 mm
Zone of inhibition [3]: 10 mm
